Test system: Plasmodium berghei
Test: Luciferase/luciferin-expressing antifolate-resistant parasites were used to infect a culture of HepG2 cells that were pre-incubated with compounds. Infected hepatocytes emit light due to the luciferase reaction. Assay results are presented as the percent inhibition of light emission compared to control. […]
Assay type: functional
Details: sporozoite; for IC90: read-out: LUCIFERASE INFECTION ASSAY - IC90
[1] = read-out: LUCIFERASE INFECTION ASSAY - IC50

| SMILES | IC90 | IC50 [1] | further results |
| --- | --- | --- | --- |
| CN(C)CCNC(=O)c1ccc(-c2cn3c(-c4ccc5ncccc5c4)cnc3cn2)cc1 | > 7.56 µM |  | IC50 (HEPG2TOX_HILL_SLOPE 1.62, HEPG2TOX_R_SQUARED 0.706, PBLUC_HILL_SLOPE 13, PBLUC_R_SQUARED 0.311, read-out: LUCIFERASE INFECTION ASSAY - IC50): 6.52 µM |
| CCCn1c(=O)n(CC(=O)Nc2ccc(C)c(C)c2)c(=O)c2c1nc(C(F)(F)F)n2CCOC | > 10 µM |  | IC50 (PBLUC_HILL_SLOPE 0.949, PBLUC_R_SQUARED 0.63, read-out: LUCIFERASE INFECTION ASSAY - IC50): 1.57 µM |
| CCCn1c(N)c(C(=O)CSc2nnc(-c3ccccc3)c(-c3ccccc3)n2)c(=O)n(C)c1=O | > 10 µM | > 10 µM |  |
| O=C(COc1ccc(Cl)cc1Br)c1ccc[nH]1 | > 10 µM |  | IC50 (FFLUC_HILL_SLOPE 12.1, FFLUC_R_SQUARED 0.341, HEPG2TOX_HILL_SLOPE 8.8, HEPG2TOX_R_SQUARED 0.689, read-out: LUCIFERASE INFECTION ASSAY - IC50): > 10 µM |
| CN1CCN(C(=O)c2cccc(-c3cnc4cnc(-c5cccc(Cl)c5)cn34)c2)CC1 | > 7.64 µM |  | IC50 (PBLUC_HILL_SLOPE 2.84, PBLUC_R_SQUARED 0.435, read-out: LUCIFERASE INFECTION ASSAY - IC50): 4.45 µM |
| c1ccc(C[n+]2ccc(-c3ncc(-c4ccc5ccccc5c4)o3)cc2)cc1 | 4.15 µM |  | IC50 (HEPG2TOX_HILL_SLOPE 3.46, HEPG2TOX_R_SQUARED 0.77, PBLUC_HILL_SLOPE 12.4, 9.50, PBLUC_R_SQUARED 0.642, 0.816, read-out: LUCIFERASE INFECTION ASSAY - IC50): 3.38 µM |
| NC(=O)c1ccc(-c2ccnc3n[nH]c(-c4cccc(F)c4)c23)cc1 | 3.73 µM |  | IC50 (HEPG2TOX_HILL_SLOPE 2.67, HEPG2TOX_R_SQUARED 0.872, PBLUC_HILL_SLOPE 9.91, PBLUC_R_SQUARED 0.595, read-out: LUCIFERASE INFECTION ASSAY - IC50): 2.99 µM |
| CSc1nc2nc(C)c(CCC(=O)N(CC(F)(F)F)C(C)C3CC3)c(C)n2n1 (centres undefined) | 1.24 µM | 0.994 µM |  |
| N#C/C(=N\Nc1cccc(Cl)c1Cl)C(N)=S | > 12.1 µM |  | IC50 (PBLUC_HILL_SLOPE 7.41, PBLUC_R_SQUARED 0.441, read-out: LUCIFERASE INFECTION ASSAY - IC50): > 12.1 µM |
| COc1ccc(C(=O)Nc2nc3ccc(C)cn3c2C(=O)NC2CCCC2)cc1 | 8.02 µM |  | IC50 (FFLUC_HILL_SLOPE 1.65, FFLUC_R_SQUARED 0.455, HEPG2TOX_HILL_SLOPE 5.25, HEPG2TOX_R_SQUARED 0.908, PBLUC_HILL_SLOPE 10.6, PBLUC_R_SQUARED 0.223, read-out: LUCIFERASE INFECTION ASSAY - IC50): 6.52 µM |
| C=C(C)C(=O)Nc1ccc([N+](=O)[O-])cc1Cl | > 13.7 µM | > 13.7 µM |  |
| Nc1c(C(=O)Nc2nc3ccccc3s2)sc2ncccc12 | 0.512 µM | 0.00465 µM |  |
| CCCNC(=O)C1(C)CCCN(C(=O)c2cccc(OC(C)=O)c2C)C1 (centres undefined) | > 9.16 µM | > 9.16 µM |  |
| COc1ccc(-c2cnc3ccc(NCC4CC4)nn23)cc1OC | 2.25 µM |  | IC50 (HEPG2TOX_HILL_SLOPE 1.71, HEPG2TOX_R_SQUARED 0.949, PBLUC_HILL_SLOPE 2.62, PBLUC_R_SQUARED 0.845, read-out: LUCIFERASE INFECTION ASSAY - IC50): 0.972 µM |
| CC1=Nn2cc(-c3ccccc3)nc2SC1c1ccccc1 (centres undefined) | 1.79 µM |  | IC50 (FFLUC_HILL_SLOPE 0.814, FFLUC_R_SQUARED 0.91, PBLUC_HILL_SLOPE 0.719, PBLUC_R_SQUARED 0.79, read-out: LUCIFERASE INFECTION ASSAY - IC50): 0.084 µM |
| CCCCCN1C(=O)/C(=N\n2c(-c3ccc(Cl)c(Cl)c3)cs/c2=N\c2cccc(C)c2C)c2ccccc21 | > 10 µM |  | IC50 (FFLUC_HILL_SLOPE 0.963, FFLUC_R_SQUARED 0.82, HEPG2TOX_HILL_SLOPE 0.0725, HEPG2TOX_R_SQUARED 0.0443, PBLUC_HILL_SLOPE 3.87, PBLUC_R_SQUARED 0.467, read-out: LUCIFERASE INFECTION ASSAY - IC50): 6.02 µM |
| Cc1nc(SCc2cccc(S(=O)(=O)N(C)C)c2)c2ccccc2n1 | > 10 µM |  | IC50 (HEPG2TOX_HILL_SLOPE 2.7, HEPG2TOX_R_SQUARED 0.556, read-out: LUCIFERASE INFECTION ASSAY - IC50): > 10 µM |
| Cn1c(NCc2ccccc2)nc2cnc(Nc3ccc(OC(F)(F)F)cc3)cc21 | 3.61 µM |  | IC50 (FFLUC_HILL_SLOPE 10.9, FFLUC_R_SQUARED 0.015, PBLUC_HILL_SLOPE 2.54, PBLUC_R_SQUARED 0.635, read-out: LUCIFERASE INFECTION ASSAY - IC50): 1.52 µM |
| COC(=O)c1ccc(NC(=O)Cc2ccc(NC(=O)OC(C)(C)C)cc2)c(C)c1 | > 10 µM | > 10 µM |  |
| CCCNC(=O)C1(C)CCN(Cc2ccc3ccccc3c2Br)C1 (centres undefined) | > 8.48 µM |  | IC50 (PBLUC_HILL_SLOPE 5.63, PBLUC_R_SQUARED 0.42, read-out: LUCIFERASE INFECTION ASSAY - IC50): 5.79 µM |
| CN(C)S(=O)(=O)c1cccc(NC(=S)N/N=C/c2cc3c(cc2[N+](=O)[O-])OCO3)c1 | > 10 µM |  | IC50 (FFLUC_HILL_SLOPE 11, FFLUC_R_SQUARED 0.0812, read-out: LUCIFERASE INFECTION ASSAY - IC50): > 10 µM |

| SMILES | IC90 | IC50 [1] | further results |
| --- | --- | --- | --- |
| COc1ccc(OCCCN2CCN(C(=O)C34CC5CC(CC(C5)C3)C4)CC2)cc1 | > 10 µM | > 10 µM |  |
| CN1CCN(c2ccc(NC(=O)c3csc4c3CCCC4)cc2)CC1 | 4.98 µM |  | IC50 (PBLUC_HILL_SLOPE 0.882, PBLUC_R_SQUARED 0.629, read-out: LUCIFERASE INFECTION ASSAY - IC50): 0.413 µM |
| O=C(N/N=C1\CCCCc2ccccc21)c1cc2ccccc2cc1O | > 10 µM |  | IC50 (HEPG2TOX_HILL_SLOPE 7.95, HEPG2TOX_R_SQUARED 0.651, read-out: LUCIFERASE INFECTION ASSAY - IC50): > 10 µM |
| CC(C)C(NC(=O)c1ccc(F)cc1)C(=O)NCC1Cc2ccccc21 (centres undefined) | > 10 µM |  | IC50 (PBLUC_HILL_SLOPE 3.06, PBLUC_R_SQUARED 0.302, read-out: LUCIFERASE INFECTION ASSAY - IC50): 6.96 µM |
| CC(=O)c1cc2c(cc1NC(=O)c1cccc(S(=O)(=O)N3c4ccccc4CC3C)c1)OCO2 (centres undefined) | > 10 µM | > 10 µM |  |
| O=C(NC1CC1)c1ccc(CN(C2CC2)S(=O)(=O)c2ccc3c(c2)OCCCO3)cc1 | 5.38 µM |  | IC50 (PBLUC_HILL_SLOPE 2.85, PBLUC_R_SQUARED 0.458, read-out: LUCIFERASE INFECTION ASSAY - IC50): 2.49 µM |
| Cc1cc(N2CCN(C(=O)C(C)Oc3ccc(F)cc3)CC2)nc(C(C)C)n1 (centres undefined) | > 10 µM | > 10 µM |  |
| O=C(Cc1csc(COc2ccc(Cl)cc2)n1)Nc1ccccc1O | > 10 µM |  | IC50 (PBLUC_HILL_SLOPE 11.8, PBLUC_R_SQUARED 0.113, read-out: LUCIFERASE INFECTION ASSAY - IC50): 9.28 µM |
| CC(C)C1NC(=O)N(CCCOc2ccc(C(C)(C)C)cc2)C1=O (centres undefined) | > 10 µM | 9.61 µM |  |
| COc1ccc(-c2n[nH]c(SC(C(=O)Nc3cc(Cl)cc(Cl)c3)c3ccccc3)nc2=O)cc1 (centres undefined) | 3.75 µM |  | IC50 (FFLUC_HILL_SLOPE 1.9, FFLUC_R_SQUARED 0.863, HEPG2TOX_HILL_SLOPE 8.67, HEPG2TOX_R_SQUARED 0.533, PBLUC_HILL_SLOPE 16.2, PBLUC_R_SQUARED 0.618, read-out: LUCIFERASE INFECTION ASSAY - IC50): 3.27 µM |
| COc1ccc(CN2C(=O)c3ccccc3C(C=NNc3nc(=O)cc(C)[nH]3)C2=O)cc1 (centres undefined) | 3.8 µM |  | IC50 (HEPG2TOX_HILL_SLOPE 12.8, HEPG2TOX_R_SQUARED 0.611, PBLUC_HILL_SLOPE 3.06, PBLUC_R_SQUARED 0.688, read-out: LUCIFERASE INFECTION ASSAY - IC50): 1.85 µM |
| Cc1noc(C)c1COC(=O)CC(c1ccccc1)c1ccccc1 | > 10 µM | > 10 µM |  |
| CCCn1c(NC(=O)C2CCCN2C(=O)C23CC4CC(CC(C4)C2)C3)nc2ccccc21 (centres undefined) | 9.69 µM |  | IC50 (PBLUC_HILL_SLOPE 41.1, PBLUC_R_SQUARED 0.0887, read-out: LUCIFERASE INFECTION ASSAY - IC50): 9.19 µM |
| CCCCCn1nc(C(=O)N2CCN(Cc3nc4ccccc4s3)CC2)c2ccccc2c1=O | > 10 µM | > 10 µM |  |
| CCc1ccc(CN(C)C(=O)c2cccc(S(=O)(=O)Nc3ccccc3OC)c2)cc1 | > 10 µM |  | IC50 (HEPG2TOX_HILL_SLOPE 2.04, HEPG2TOX_R_SQUARED 0.142, read-out: LUCIFERASE INFECTION ASSAY - IC50): > 10 µM |
| CC1(C(=O)NC(=S)NNc2nc3ccccc3[nH]2)CC1(Cl)Cl (centres undefined) | > 10 µM |  | IC50 (HEPG2TOX_HILL_SLOPE 1.8, HEPG2TOX_R_SQUARED 0.951, read-out: LUCIFERASE INFECTION ASSAY - IC50): > 10 µM |
| O=C(Nc1cccc(Cn2ccnc2)c1)c1nn(-c2ccccc2)c2c1CCC2 | > 10 µM | > 10 µM |  |
| CCCN1C(=O)/C(=N\OCC(=O)c2cc(C)n(Cc3cccs3)c2C)c2ccccc21 | > 10 µM |  | IC50 (HEPG2TOX_HILL_SLOPE 0.794, HEPG2TOX_R_SQUARED 0.3, read-out: LUCIFERASE INFECTION ASSAY - IC50): > 10 µM |
| O=C(NC1CCN(Cc2ccccc2)C1)c1cc2cc(Br)ccc2[nH]1 (centres undefined) | > 10 µM |  | IC50 (FFLUC_HILL_SLOPE 15.5, FFLUC_R_SQUARED 0.545, HEPG2TOX_HILL_SLOPE 1.06, HEPG2TOX_R_SQUARED 0.919, PBLUC_HILL_SLOPE 3.35, PBLUC_R_SQUARED 0.069, read-out: LUCIFERASE INFECTION ASSAY - IC50): 7.09 µM |
| CCOC(=O)c1ccc(OC(C)C(=O)NC2CCCC(C)C2C)cc1 (centres undefined) | > 10 µM | > 10 µM |  |
| Cc1cc(C)c2c(N)c(C(=O)NNC(=O)COc3ccc4c5c(c(=O)oc4c3)CCC5)sc2n1 | > 10 µM | > 10 µM |  |
